Assays:
Human HDAC11 = Human HDAC11 (Homo sapiens (Human), UniProt Q96DB2); test: HDAC11 biochemical fluorescent activity assay; details: substrate Arg-His-Lys-Lys(Ac)
Recombinant human HDAC6 = Recombinant human HDAC6 (Homo sapiens (Human), UniProt Q9UBN7); test: HDAC6 biochemical fluorescent activity assay; details: substrate Arg-His-Lys-Lys(Ac)
Human HDAC10 = Human HDAC10 (Homo sapiens (Human), UniProt Q969S8); test: HDAC10 biochemical fluorescent activity assay; details: substrate Arg-His-Lys-Lys(Ac)
Chain of Human HDAC10 (Q969S8 1-481): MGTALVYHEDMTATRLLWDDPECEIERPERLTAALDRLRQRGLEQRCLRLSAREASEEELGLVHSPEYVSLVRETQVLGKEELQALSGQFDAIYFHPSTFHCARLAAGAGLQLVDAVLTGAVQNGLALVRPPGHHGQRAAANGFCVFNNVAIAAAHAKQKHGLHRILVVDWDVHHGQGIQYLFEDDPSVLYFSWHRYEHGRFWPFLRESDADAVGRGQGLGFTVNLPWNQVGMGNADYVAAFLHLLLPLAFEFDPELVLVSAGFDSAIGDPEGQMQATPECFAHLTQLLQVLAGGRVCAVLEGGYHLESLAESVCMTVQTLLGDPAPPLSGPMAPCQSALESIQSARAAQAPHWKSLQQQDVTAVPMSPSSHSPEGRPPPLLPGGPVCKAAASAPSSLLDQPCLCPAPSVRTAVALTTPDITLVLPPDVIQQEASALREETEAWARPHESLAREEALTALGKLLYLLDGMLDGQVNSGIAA

Human HDAC1 = Human HDAC1 (Homo sapiens (Human), UniProt Q13547); test: HDAC1 biochemical fluorescent activity assay; details: substrate Arg-His-Lys-Lys(Ac)
Chain of Human HDAC1 (Q13547 whole entry): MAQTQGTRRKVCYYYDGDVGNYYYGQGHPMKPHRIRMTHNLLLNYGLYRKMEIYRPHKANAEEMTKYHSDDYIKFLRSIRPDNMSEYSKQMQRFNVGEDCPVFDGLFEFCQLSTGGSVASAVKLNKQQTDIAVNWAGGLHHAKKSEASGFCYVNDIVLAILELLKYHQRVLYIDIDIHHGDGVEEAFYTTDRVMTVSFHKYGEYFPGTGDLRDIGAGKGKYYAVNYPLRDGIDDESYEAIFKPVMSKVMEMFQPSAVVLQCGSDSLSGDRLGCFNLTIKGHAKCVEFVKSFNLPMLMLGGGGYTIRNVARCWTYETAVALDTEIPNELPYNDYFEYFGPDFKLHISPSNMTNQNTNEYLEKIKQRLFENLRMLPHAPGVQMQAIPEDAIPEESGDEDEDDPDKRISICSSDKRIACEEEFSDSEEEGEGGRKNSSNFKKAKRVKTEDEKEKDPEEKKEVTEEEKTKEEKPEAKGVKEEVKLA

Human HDAC5 = Human HDAC5 (Homo sapiens (Human), UniProt Q9UQL6); test: HDAC5 biochemical fluorescent activity assay
Chain of Human HDAC5 (Q9UQL6 whole entry): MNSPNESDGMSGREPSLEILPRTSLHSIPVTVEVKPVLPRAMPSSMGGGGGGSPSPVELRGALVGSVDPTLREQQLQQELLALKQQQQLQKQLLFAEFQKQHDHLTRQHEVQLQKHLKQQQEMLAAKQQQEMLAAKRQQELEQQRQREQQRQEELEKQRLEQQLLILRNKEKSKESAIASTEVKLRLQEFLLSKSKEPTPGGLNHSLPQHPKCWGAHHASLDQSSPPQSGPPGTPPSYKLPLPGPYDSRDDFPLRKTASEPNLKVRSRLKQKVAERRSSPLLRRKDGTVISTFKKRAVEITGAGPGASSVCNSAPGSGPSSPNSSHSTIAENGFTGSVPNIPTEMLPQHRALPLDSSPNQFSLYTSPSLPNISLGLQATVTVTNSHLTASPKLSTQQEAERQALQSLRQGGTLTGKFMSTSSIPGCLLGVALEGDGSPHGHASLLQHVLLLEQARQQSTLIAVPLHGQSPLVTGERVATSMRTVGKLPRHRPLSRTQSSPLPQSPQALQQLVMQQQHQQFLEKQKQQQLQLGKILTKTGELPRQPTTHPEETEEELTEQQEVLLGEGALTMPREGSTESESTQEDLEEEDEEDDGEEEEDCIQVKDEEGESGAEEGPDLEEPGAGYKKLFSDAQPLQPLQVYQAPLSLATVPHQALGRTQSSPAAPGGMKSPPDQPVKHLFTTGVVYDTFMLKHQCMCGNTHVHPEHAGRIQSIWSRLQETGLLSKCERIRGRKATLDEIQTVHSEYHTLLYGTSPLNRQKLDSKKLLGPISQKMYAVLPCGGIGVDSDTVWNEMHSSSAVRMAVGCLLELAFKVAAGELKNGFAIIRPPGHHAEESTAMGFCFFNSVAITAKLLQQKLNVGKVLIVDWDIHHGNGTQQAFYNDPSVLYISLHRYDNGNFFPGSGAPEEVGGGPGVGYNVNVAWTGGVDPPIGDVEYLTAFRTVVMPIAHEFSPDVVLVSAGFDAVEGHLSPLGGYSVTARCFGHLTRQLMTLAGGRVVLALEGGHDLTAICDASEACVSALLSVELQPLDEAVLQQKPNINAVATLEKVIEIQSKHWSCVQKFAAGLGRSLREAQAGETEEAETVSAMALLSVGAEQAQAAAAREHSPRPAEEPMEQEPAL

Human HDAC2 = Human HDAC2 (Homo sapiens (Human), UniProt Q92769); test: HDAC2 biochemical fluorescent activity assay; details: substrate Arg-His-Lys-Lys(Ac)
Chain of Human HDAC2 (Q92769 whole entry): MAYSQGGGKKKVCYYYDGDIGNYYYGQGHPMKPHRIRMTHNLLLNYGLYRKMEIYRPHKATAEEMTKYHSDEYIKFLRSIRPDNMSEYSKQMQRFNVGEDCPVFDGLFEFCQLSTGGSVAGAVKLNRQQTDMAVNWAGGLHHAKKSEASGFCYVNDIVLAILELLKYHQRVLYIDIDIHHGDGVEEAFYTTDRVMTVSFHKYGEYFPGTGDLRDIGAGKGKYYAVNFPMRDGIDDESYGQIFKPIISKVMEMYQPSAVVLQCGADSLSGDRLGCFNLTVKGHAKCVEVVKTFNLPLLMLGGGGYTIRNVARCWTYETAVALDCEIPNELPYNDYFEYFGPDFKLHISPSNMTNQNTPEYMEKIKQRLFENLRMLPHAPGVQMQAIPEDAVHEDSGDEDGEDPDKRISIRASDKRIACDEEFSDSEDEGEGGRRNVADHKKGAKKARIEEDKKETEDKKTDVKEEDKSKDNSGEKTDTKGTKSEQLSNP

Human HDAC8 = Human HDAC8 (Homo sapiens (Human), UniProt Q9BY41); test: HDAC8 biochemical fluorescent activity assay; details: substrate Arg-His-Lys(Ac)-Lys(Ac)
Chain of Human HDAC8 (Q9BY41 whole entry): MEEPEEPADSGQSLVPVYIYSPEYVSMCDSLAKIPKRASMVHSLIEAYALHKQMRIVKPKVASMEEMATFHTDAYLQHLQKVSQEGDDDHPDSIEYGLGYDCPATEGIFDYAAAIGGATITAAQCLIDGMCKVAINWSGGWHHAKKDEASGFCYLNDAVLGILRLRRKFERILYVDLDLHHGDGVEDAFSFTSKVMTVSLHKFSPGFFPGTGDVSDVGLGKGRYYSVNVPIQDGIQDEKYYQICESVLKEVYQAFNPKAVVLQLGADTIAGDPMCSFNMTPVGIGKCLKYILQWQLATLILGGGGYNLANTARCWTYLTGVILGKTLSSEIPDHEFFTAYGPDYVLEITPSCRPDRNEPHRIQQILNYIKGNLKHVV

Chain of Human HDAC11 (Q96DB2 whole entry): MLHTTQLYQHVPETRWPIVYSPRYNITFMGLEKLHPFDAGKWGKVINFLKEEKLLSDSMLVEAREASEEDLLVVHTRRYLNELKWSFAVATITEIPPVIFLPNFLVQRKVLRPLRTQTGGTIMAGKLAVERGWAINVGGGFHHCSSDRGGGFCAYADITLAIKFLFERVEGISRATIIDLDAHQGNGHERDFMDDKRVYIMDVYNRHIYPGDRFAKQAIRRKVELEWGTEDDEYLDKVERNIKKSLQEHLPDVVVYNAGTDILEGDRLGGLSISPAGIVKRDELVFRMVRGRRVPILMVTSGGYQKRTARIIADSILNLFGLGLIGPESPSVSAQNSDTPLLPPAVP
Chain of Recombinant human HDAC6 (Q9UBN7 whole entry): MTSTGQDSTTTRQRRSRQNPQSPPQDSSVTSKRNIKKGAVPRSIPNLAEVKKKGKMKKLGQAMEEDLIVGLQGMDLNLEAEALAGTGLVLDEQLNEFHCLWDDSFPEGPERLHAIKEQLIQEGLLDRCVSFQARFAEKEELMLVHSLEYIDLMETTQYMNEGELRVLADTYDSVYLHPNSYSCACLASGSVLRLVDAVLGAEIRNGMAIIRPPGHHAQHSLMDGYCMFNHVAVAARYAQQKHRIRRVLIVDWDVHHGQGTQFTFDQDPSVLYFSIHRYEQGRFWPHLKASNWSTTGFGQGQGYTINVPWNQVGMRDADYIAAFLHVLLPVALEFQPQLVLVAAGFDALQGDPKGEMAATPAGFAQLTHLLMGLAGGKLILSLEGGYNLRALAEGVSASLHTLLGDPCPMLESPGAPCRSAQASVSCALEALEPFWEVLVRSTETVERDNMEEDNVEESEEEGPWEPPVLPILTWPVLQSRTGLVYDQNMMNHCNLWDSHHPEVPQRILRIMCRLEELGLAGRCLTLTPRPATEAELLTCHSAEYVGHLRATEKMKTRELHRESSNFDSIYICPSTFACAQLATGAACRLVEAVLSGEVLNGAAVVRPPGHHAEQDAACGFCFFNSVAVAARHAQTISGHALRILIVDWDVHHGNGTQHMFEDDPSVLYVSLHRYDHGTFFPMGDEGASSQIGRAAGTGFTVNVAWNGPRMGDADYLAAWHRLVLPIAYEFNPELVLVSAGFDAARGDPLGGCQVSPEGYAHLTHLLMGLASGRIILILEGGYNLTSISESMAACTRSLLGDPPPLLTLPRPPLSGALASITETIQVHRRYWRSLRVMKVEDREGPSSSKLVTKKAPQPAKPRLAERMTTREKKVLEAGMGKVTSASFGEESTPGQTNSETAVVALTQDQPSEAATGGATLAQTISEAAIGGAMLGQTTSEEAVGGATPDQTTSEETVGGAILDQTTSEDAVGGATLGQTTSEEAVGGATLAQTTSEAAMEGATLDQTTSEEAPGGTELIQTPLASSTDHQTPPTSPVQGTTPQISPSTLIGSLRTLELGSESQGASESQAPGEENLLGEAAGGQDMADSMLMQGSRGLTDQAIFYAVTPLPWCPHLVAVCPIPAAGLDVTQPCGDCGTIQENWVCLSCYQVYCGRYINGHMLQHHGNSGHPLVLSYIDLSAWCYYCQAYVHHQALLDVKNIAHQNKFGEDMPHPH

Compound `O=C(NO)c1ccc(Cn2sc3ncccc3c2=O)cc1` [RBC-3001-A, N-hydroxy-4-((3-oxoisothiazolo[5,4-b]pyridin-2(3H)-yl)methyl)benzamide] has an IC50 (Human HDAC11) of 2.84 µM, an IC50 (Recombinant human HDAC6) of 0.000958 µM and an IC50 (Human HDAC10) of 4.26 µM. For the same compound, the IC50 (Human HDAC1) was 0.175 µM, the IC50 (Human HDAC5) was 0.508 µM and the IC50 (Human HDAC2) was 5.4 µM. The IC50 (Human HDAC8) was 0.0271 µM.
